Source: patent US7531629B2, “Tumor associated antigen peptides and use of same as anti-tumor vaccines” (Yeda Research and Development Co. Ltd., priority 1998, dated 2009)
One block for each sequence: values may come before it.

Key:
RMA-S-HhD cells [1] = assay: CTL from peptide-immunized HhD mice against loaded RMA-S-HhD target cells; assay type: in vivo; details: for ability to evoke specific CTL responses (lysis of peptide-loaded target cells): additional Uroplakin Ib, II, III peptides, three weekly immunizations, FIGS. 23a-e; for lysis of RMA-S-HhD target cells loaded with MUC-1 peptide: immunization with a pool of the MUC-1-derived synthetic peptides; for lysis of RMA-S-HhD targets loaded with homologous BA-46 peptide: CTL from HhD mice immunized with BA-46 peptides; for lymphocyte response specifically lysing CRIPTO-1 peptide-loaded target cells: HhD mice immunized with CRIPTO-1 peptide pools, FIGS. 24a-c
Experimental: (§1) Vaccination: Mice were immunized intraperitonealy three times at 7-day intervals, with 2×10^6 irradiated (5,000 rad) tumor cells, or with peptide-loaded RMA-S-HhD-B7.1 transfectants. Peptide loading of RMA-S-HhD-B7.1 cells was performed as follows: After washing the cells 3 times in PBS, the surface expression of HhD monochins was stabilized by a 4 hours culture at 26° C. Synthetic peptides, or peptide extracts were added to 10×10^6 cells in 1 ml of opti-MEM (Gibco) medium to a concentration of 100 μM or 1 mM, respectively. The cells were incubated at 26° C. and for additional 3 hours at 37° C. Peptide loaded RMA-S-HhDσ-σB7.1 cells were irradiated (5000 rad), washed, resuspended in PBS and injected into mice. In mixed synthetic vaccines, RMA-S-HhD-B7.1 cells were loaded separately with each peptide and pooled before vaccination.
(§2) In vitro cytotoxicity assays: Mice were immunized intraperitonealy three times at 7-day intervals, with 2×10^6 irradiated (5,000 rad) tumor cells, or with peptide-loaded RMA-S-HhD-B7.1 transfectants. Spleens were removed on day 10 after the last immunization and splenocytes were restimulated in vitro with either irradiated tumor cells (for mice immunized with tumor cells) or with lymphocytes pulsed with 100 μM synthetic peptides or 1 mM patients-derived extract in opti-MEM (Gibco) medium. Restimulated lymphocytes were maintained in RPMI 1640 medium containing 10% FCS, 1 mM glutamine, combined antibiotics, 1 mM sodium pyruvate, 10 mM HEPES, pH 7.4, 5×10^−5 M β-mercaptoethanol, and 1% nonessential amino acids (RPMI-HEPES medium) for 5 days. Viable lymphocytes (effector cells), were separated by lymphocyte-M (Cedarlane, Ontario, Canada) centrifugation, resuspended in RPMI-HEPES medium, and admixed at different ratios with 5×10^3 peptide loaded RMA-S-HhD cells, previously loaded with different peptides (see vaccination). CTL assays were performed in U-shaped microtiter wells, at 37° C., 5% CO2 for 5 hours. Cultures were terminated by centrifugation at 1,000 rpm for 10 minutes at 4° C. A total of 100 μl of the supernatants was mixed with scintillation fluids and counted in a beta counter. […] Spontaneous release was determined by incubation of 100 μl-labeled target cells with 100 μl of medium. Maximal release was determined by solubilization of target cells in 100 μl 0.1 M NaOH.
CTL induced in HhD mice recognize the same UP II peptides as human PBL: The immunogenicity of Uroplakin homologue peptides was also evaluated in a mouse model, in which the murine MHC class I genes are not expressed (D^b−/−, β2-microglobulin −/−, double knockout) and which is transgenic for a HLA-A2 and human β2-microglobulin monochain (HhD mice). The advantage of a HLA-A2 transgenic mouse model is that CTL epitopes can be detected more easily and reproducibly, without lengthy and repeated in vitro stimulations. The murine MHC knockout mice used herein has the additional advantage that their CTL repertoire is only HLA-A2 restricted and the CTL response against human tumor extract or human cell lines is not masked by a potential xenogeneic response. HhD mice were immunized with the 7 Uroplakin II homologue peptides or with the same TCC peptide extract used for stimulation of patient's PBL. Lymphocytes were obtained from the spleens of these mice and restimulated in vitro once with the corresponding peptides. […]

RMA-S-HhD cells [2] = assay: CTL from HhD mice immunized with tumor extracted peptides or DU145-HhD cells against loaded RMA-S-HhD target cells; assay type: cell-based; details: for recognition and lysis of peptide loaded targets by anti-tumor extract CTL: CTL against breast tumor peptide extracts, E:T 50:1
Experimental: as §1
as §2, with “Cultures were terminated by centrifugation at 1,000 rpm for 10 minutes at 4° C.” left out
CTL induced in HhD mice recognize the same UP II peptides as human PBL: The immunogenicity of Uroplakin homologue peptides was also evaluated in a mouse model, in which the murine MHC class I genes are not expressed (D^b−/−, β2-microglobulin −/−, double knockout) and which is transgenic for a HLA-A2 and human β2-microglobulin monochain (HhD mice). The advantage of a HLA-A2 transgenic mouse model is that CTL epitopes can be detected more easily and reproducibly, without lengthy and repeated in vitro stimulations. […]

[3] = MHC stabilization assay: peptide binding to HhD on RMA-S-HhD cells, indirect FACS; set-up: species or system human; details: peptide loaded RMA-S-HhD cells
Experimental: Measurement of peptide binding by stabilization of cell surface MHC: Peptide binding to HhD was measured by stabilization of HhD on RMA-S transfectants, using an indirect FACS assay as follows: 5×10^5 peptide loaded TAP-2 deficient RMA-S-HhD cells (see vaccination), were incubated with anti HLA monoclonal antibodies for 30 minutes at 4° C. After washing the cells with PBS-0.5%, BSA+0.1%, sodium azide, the second antibody, goat anti mouse-FITC (Jackson Lab.), was applied for 30 minutes at 4° C. Following washing, the amount of bound antibodies was detected by FACSscan […].
Mouse monoclonal antibodies. B-9-12, w6/32 (anti HLA A, B, C) and B.B7.2 (anti HLA-A2.1) were used for analyses.
Cytotoxic activity of human peripheral blood lymphocytes (PBL) against target cells pulsed with Uroplakin II peptide homologues: The human UP II amino acid sequence was screened for potential HLA-A2 binding, 9 amino acids peptides by a HLA binding motif program. We chose that particular HLA allele because it is present in 45% of the population. Seven 9-mer peptides, which were predicted to bind with high affinity to HLA-A2 were selected and synthesized (Table 1). The binding of these peptides to HLA-A2 was tested by an MHC stabilization assay utilizing TAP negative cells, which can present exogeneously bound peptides. The RMA-S cells (30) transfected by the HhD construct were loaded with various concentrations of UP II peptides and then reacted with anti-HLA antibody. High affinity binding was shown for all 7 peptides by FACS analyses (FIG. 1).

MDA-MB-157-HhD cells = assay: Lysis of MDA-MB-157-HhD breast carcinoma cells by CTL from immunized HhD mice; assay type: in vitro; details: CTL from HhD mice immunized with the named substance
prostate cancer = details: DC based vaccine, 51 prostate cancer patients, HLA-A2; cited from earlier work
T2 cells = assay: CTL assay with patients' PBL resensitized with pooled TCC extracted peptides; assay type: cell-based, human; details: CTL from TCC patients' PBL

Sequence: AILCWTFWV (listed as Homo sapiens) [Uroplakin Ib/B1]
ability to evoke specific CTL responses (lysis of peptide-loaded target cells) (RMA-S-HhD cells [1]): could elicit lymphocytes which specifically lysed target cells

peptide binding to HhD, stabilization of cell surface HhD (FACS) [3]: higher binding affinity
Sequence: ALASTAPPV (listed as Homo sapiens) [MUC-1/E6]
recognition and lysis of peptide loaded targets by anti-tumor extract CTL (RMA-S-HhD cells [2]): recognized and lysed
lysis of breast carcinoma line HhD transfectant (MDA-MB-157-HhD) relative to parental cells (MDA-MB-157-HhD cells): Preferential lysis
lysis of RMA-S-HhD target cells loaded with MUC-1 peptide (RMA-S-HhD cells [1]): 15%

Sequence: ALFDIESKV (listed as Homo sapiens) [PSMA5]
patients responding by decreased levels of serum PSA (prostate cancer): 7 patients

Sequence: FILMFIVYA (listed as Homo sapiens) [Uroplakin Ib/B2]
ability to evoke specific CTL responses (lysis of peptide-loaded target cells) (RMA-S-HhD cells [1]): could elicit lymphocytes which specifically lysed target cells

Sequence: FLLVGFAGA (listed as Homo sapiens) [Uroplakin III/3.3]
ability to evoke specific CTL responses (lysis of peptide-loaded target cells) (RMA-S-HhD cells [1]): could elicit lymphocytes which specifically lysed target cells

Sequence: FLSFHISNL (listed as Homo sapiens) [MUC-1/F6]
lysis of RMA-S-HhD target cells loaded with MUC-1 peptide (RMA-S-HhD cells [1]): 15%

Sequence: GLQHWVPEL (listed as Homo sapiens) [BA-46-7]
lysis of RMA-S-HhD targets loaded with homologous BA-46 peptide (RMA-S-HhD cells [1]): 60%

Sequence: ILCWTFWVL (listed as Homo sapiens) [Uroplakin Ib/B5]
ability to evoke specific CTL responses (lysis of peptide-loaded target cells) (RMA-S-HhD cells [1]): could elicit lymphocytes which specifically lysed target cells

Sequence: ILNAYLVRV (listed as Homo sapiens) [Uroplakin III/3.2]
ability to evoke specific CTL responses (lysis of peptide-loaded target cells) (RMA-S-HhD cells [1]): could elicit lymphocytes which specifically lysed target cells

Sequence: KILLAYFIL (listed as Homo sapiens) [Uroplakin Ib/B6]
ability to evoke specific CTL responses (lysis of peptide-loaded target cells) (RMA-S-HhD cells [1]): could elicit lymphocytes which specifically lysed target cells

Sequence: KMARFSYSV (listed as Homo sapiens) [Cripto-1/C1]
lymphocyte response specifically lysing CRIPTO-1 peptide-loaded target cells (RMA-S-HhD cells [1]): can elicit lymphocyte response which specifically lyses CRIPTO-1 peptide-loaded target cells

Sequence: KMVRFSYSV (listed as Homo sapiens) [Cripto-1/C10]
lymphocyte response specifically lysing CRIPTO-1 peptide-loaded target cells (RMA-S-HhD cells [1]): can elicit lymphocyte response which specifically lyses CRIPTO-1 peptide-loaded target cells

peptide binding to HhD, stabilization of cell surface HhD (FACS) [3]: higher binding affinity
Sequence: LLLTVLTVV (listed as Homo sapiens) [MUC-1/D6]
recognition and lysis of peptide loaded targets by anti-tumor extract CTL (RMA-S-HhD cells [2]): recognized and lysed
lysis of breast carcinoma line HhD transfectant (MDA-MB-157-HhD) relative to parental cells (MDA-MB-157-HhD cells): Preferential lysis
lysis of RMA-S-HhD target cells loaded with MUC-1 peptide (RMA-S-HhD cells [1]): 38%

Sequence: MLAGICLSI (listed as Homo sapiens) [Cripto-1/C12]
lymphocyte response specifically lysing CRIPTO-1 peptide-loaded target cells (RMA-S-HhD cells [1]): can elicit lymphocyte response which specifically lyses CRIPTO-1 peptide-loaded target cells

Sequence: MLVGICLSI (listed as Homo sapiens) [Cripto-1/C8]
lymphocyte response specifically lysing CRIPTO-1 peptide-loaded target cells (RMA-S-HhD cells [1]): can elicit lymphocyte response which specifically lyses CRIPTO-1 peptide-loaded target cells

Sequence: NLFETPVEA (listed as Homo sapiens) [BA-46-6]
lysis of RMA-S-HhD targets loaded with homologous BA-46 peptide (RMA-S-HhD cells [1]): 40%

peptide binding to HhD, stabilization of cell surface HhD (FACS) [3]: higher binding affinity
Sequence: NLTISDVSV (listed as Homo sapiens) [MUC-1/A7]
recognition and lysis of peptide loaded targets by anti-tumor extract CTL (RMA-S-HhD cells [2]): recognized and lysed
lysis of breast carcinoma line HhD transfectant (MDA-MB-157-HhD) relative to parental cells (MDA-MB-157-HhD cells): Preferential lysis
lysis of RMA-S-HhD target cells loaded with MUC-1 peptide (RMA-S-HhD cells [1]): 30%

Sequence: RLLAALCGA (listed as Homo sapiens) [BA-46-9]
lysis of RMA-S-HhD targets loaded with homologous BA-46 peptide (RMA-S-HhD cells [1]): 40%

Sequence: VLLSVAMFL (listed as Homo sapiens) [Uroplakin II/8]
ability to evoke specific CTL responses (lysis of peptide-loaded target cells) (RMA-S-HhD cells [1]): could elicit lymphocytes which specifically lysed target cells

Sequence: YMDGTMSQV [Tyrosinase, reference compound]
specific lysis of loaded RMA-S-HhD cells (RMA-S-HhD cells [2]; CTL from HhD mice immunized with breast tumor extract peptide, E:T 100:1): No lysis
lysis of T2 cells loaded with nonspecific peptides (T2 cells): no lysis
lysis of loaded RMA-S-HhD cells, lytic units (LU30) (RMA-S-HhD cells [1]; CTL from HhD mice immunized with human Uroplakin II peptides 1-7, substance loaded on targets): no lysis
ability to evoke specific CTL responses (lysis of peptide-loaded target cells) (RMA-S-HhD cells [1]): no significant lysis
lysis of targets loaded with nonspecific peptides (RMA-S-HhD cells [1]; overall, all immunized groups of Example 2): no lysis
